A word on the Solubility: it is the concentration that dissolves in the medium under given conditions. Broadly, the IC50 is the concentration needed to halve the response being measured. What is called chromatographic logD is lipophilicity estimated from chromatographic retention. Read a high chromatographic logD as higher lipophilicity.

Experimental findings from patent publication US20240116985A1, “STAPLED PEPTIDES AND METHODS THEREOF” (priority 2020, published 2024) are described below.

One data set in a line: Solubility in PBS. The format is physicochemical. Particulars: Solubility (uM). The essentials: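 HPLC quantitation of peptide remaining in the PBS supernatant after ultracentrifugation, referenced to a 50 μM solution in DMSO.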
Data set [1] concerns the target T1, beta-catenin/TCF4 engagement (Homo sapiens, UniProt P35222).
T1 construct: expressed in transfected cells; host or cells: HEK293
T1 sequence (P35222 1-781): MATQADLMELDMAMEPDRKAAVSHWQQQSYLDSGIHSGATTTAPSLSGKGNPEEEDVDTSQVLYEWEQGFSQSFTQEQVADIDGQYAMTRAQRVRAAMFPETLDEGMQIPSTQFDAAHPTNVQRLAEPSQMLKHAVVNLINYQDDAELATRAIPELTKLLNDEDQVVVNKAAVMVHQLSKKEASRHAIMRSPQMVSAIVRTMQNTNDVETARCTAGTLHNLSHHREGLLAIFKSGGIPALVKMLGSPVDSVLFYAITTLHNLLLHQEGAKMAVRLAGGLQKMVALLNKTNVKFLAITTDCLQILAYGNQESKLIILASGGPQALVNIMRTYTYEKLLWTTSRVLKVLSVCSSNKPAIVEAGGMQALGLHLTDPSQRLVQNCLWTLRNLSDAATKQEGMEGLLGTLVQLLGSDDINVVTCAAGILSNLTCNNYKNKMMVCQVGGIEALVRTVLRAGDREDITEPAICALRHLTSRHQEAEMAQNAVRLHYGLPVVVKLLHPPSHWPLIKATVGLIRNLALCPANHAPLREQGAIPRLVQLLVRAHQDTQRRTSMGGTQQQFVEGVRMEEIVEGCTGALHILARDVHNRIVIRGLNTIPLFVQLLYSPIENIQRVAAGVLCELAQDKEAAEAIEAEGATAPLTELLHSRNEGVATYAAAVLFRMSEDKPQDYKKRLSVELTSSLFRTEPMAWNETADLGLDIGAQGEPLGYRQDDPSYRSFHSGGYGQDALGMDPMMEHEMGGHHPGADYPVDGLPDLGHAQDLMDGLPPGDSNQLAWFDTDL
The data set can be described thus: Nano-BRET target engagement assay (B-cat-Halo & TCF4-Luc in HEK293 cells). The format is cell-based. Particulars: absolute IC50; read-out: NanoBRET Abs IC50.

Data set [2] deals with TCF/LEF luciferase Reporter in DLD1 cells. Briefly: TCF reporter assay (DLD1 TCF/LEF luciferase reporter, Bright-Glo). The format is cell-based. Particulars: for DLD1 TCF c2 BrightGlo % Inhibition: replicates. The essentials:
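DLD1 cells stably carrying a TCF/LEF luciferase reporter were plated at 5000 cells/well in RPMI + 4% FBS and treated overnight with a 1:2 compound dilution series. Bright-Glo luminescence read on day 3; viability by CellTiter-Glo. Absolute IC50 determined.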
For orientation: A reporter such as luciferase makes a cellular process visible.

For data set [3], the target named is T2, full-length beta-Catenin (Uniprot ID P35222) (Homo sapiens, UniProt P35222).
T2 construct: 10 nM full-length beta-Catenin (Uniprot ID P35222)
T2 sequence (P35222 1-781): T1 sequence (P35222 1-781)
Briefly: Fluorescence polarization IC50 (beta-catenin / 5FAM-TCF4 10-53 competition). Conditions: read-out: beta-Catenin FP IC50. The format is binding. Background: Fluorescence polarisation rises when a labelled molecule tumbles more slowly, as on binding a larger partner.

A further data set in a line: CHI Log D procedure. The format is physicochemical. Particulars: pH 7.4, CHI Log D.
Where [4] appears, read: absolute IC50, read-out: DLD1 reporter assay Abs IC50.
The mark [5] stands for this setting: first dose = 20 uM (plate map), 20 µM.
The mark [6] stands for this setting: third dose = 5 uM (plate map), 5 µM.
Setting [7] is: read-out: DLD1 4% Abs IC50, DLD1 4%.

Values after ≈ are worked out from the molar mass of the structure shown. Values joined by “and” are separate entries in the source; they are usually repeats but may differ in a detail not shown here. Identical values can stand only once. Like-named read-outs stand apart in the source and are kept apart here.

As for `CC(=O)N1CCC[C@]12CC=CCCCC1(CCCC=CCCCOC(=O)N3CC[C@@](C(=O)N[C@@H](Cc4ccccc4Cl)C(=O)N[C@@H](Cc4csc5ccccc45)C(=O)N[C@@H](CO)C(N)=O)(C3)NC(=O)[C@H]([C@@H](C)O)NC(=O)[C@H](Cc3ccccc3)NC(=O)[C@H](C)NC(=O)[C@H](C)NC(=O)[C@H](CC(=O)O)NC(=O)[C@H](CC(=O)O)NC1=O)NC(=O)[C@H](CC1CCCCC1)NC(=O)[C@H](CC(=O)O)NC2=O` (stereo partly drawn) [I-1048, Ac-PL3-Asp-Cha-B5-Asp-Asp-Ala-Ala-Phe-Thr-PyrS2-2C1F-BztA-Ser-NH2], the concentration in solution in the data set “Solubility in PBS” (Solubility) was 42 µM (≈ 80.6 µg/mL). In addition, the figures for the 50% inhibitory concentration (IC50) in data set [1], in data set [2] (setting [4]) and in data set [3] were 8.8 µM, 10.5 µM and 0.005 µM, respectively. The chromatographic logD in the data set “CHI Log D procedure” turned out to be 2.52.

In turn, `CC(=O)N1CCC[C@]12CC=CCCCC1(CCCC=CCCCOC(=O)N3CC[C@@](C(=O)N[C@@H](Cc4ccccc4Cl)C(=O)N[C@@H](Cc4csc5ccccc45)C(=O)N[C@@H](CO)C(N)=O)(C3)NC(=O)[C@H](CO)NC(=O)[C@H](Cc3ccccc3)NC(=O)[C@H](C)NC(=O)[C@H](C)NC(=O)[C@H](CC(=O)O)NC(=O)[C@H](CC(=O)O)NC1=O)NC(=O)[C@H](CC1CCCCC1)NC(=O)[C@H](CC(=O)O)NC2=O` (stereo partly drawn) [I-1050, Ac-PL3-Asp-Cha-B5-Asp-Asp-Ala-Ala-Phe-Ser-PyrS2-2C1F-BztA-Ser-NH2] yielded a Solubility in “Solubility in PBS” of 43 µM (≈ 81.9 µg/mL). Also, the half-inhibitory concentration (IC50) in data set [1] was found to be 24.8 µM; in data set [2] (setting [4]), 11.2 µM; in data set [3], 0.005 µM. The “DLD1 TCF c2 BrightGlo % Inhibition” value was 61.5% and 59.8% and 58.7% in data set [2] (setting [5]); 13.7% and 5.5% and 6.1% in data set [2] (0.625 µM); 6.8% and −0.9% and −4.5% in data set [2] (1.25 µM); 6.2% and 1.9% and −2.2% in data set [2] (2.5 µM); 50.8% and 46.4% and 39.4% in data set [2] (10 µM); 25.4% and 24.7% and 12.9% in data set [2] (setting [6]). Besides, in “CHI Log D procedure”, the chromatographic logD was 2.45.

On to `CC(=O)N1CCC[C@]12CC=CCCCC1(CCCC=CCCCOC(=O)N3CC[C@@](C(=O)N[C@@H](Cc4ccccc4Cl)C(=O)N[C@@H](Cc4csc5ccccc45)C(=O)N[C@@H](CO)C(N)=O)(C3)NC(=O)[C@H](CO)NC(=O)[C@H](Cc3ccccc3)NC(=O)[C@H](C)NC(=O)[C@H](C)NC(=O)[C@H](CC(=O)O)NC(=O)[C@H](CC(=O)O)NC1=O)NC(=O)[C@H](Cc1ccccc1)NC(=O)[C@H](CC(=O)O)NC2=O` (stereo partly drawn) [I-1051, Ac-PL3-Asp-Phe-B5-Asp-Asp-Ala-Ala-Phe-Ser-PyrS2-2C1F-BztA-Ser-NH2], for which the concentration in solution in the data set “Solubility in PBS” (Solubility) came to 48 µM (≈ 91.1 µg/mL). The figures for the IC50 in data set [1], in data set [2] (setting [4]) and in data set [3] were over 20 µM, over 20 µM and 0.014 µM, respectively. Besides, the “DLD1 TCF c2 BrightGlo % Inhibition” value in data set [2] (setting [5]) was 20.2% and 21.7% and 24.7%; in data set [2] (0.625 µM), −1.7% and −3.4% and 0.0%; in data set [2] (1.25 µM), −12.2% and −5.2% and −3.8%; in data set [2] (2.5 µM), −12.5% and −11.1% and −13.2%; in data set [2] (10 µM), 3.9% and 5.0% and −0.5%; in data set [2] (setting [6]) it was −4.1% and −5.0% and −11.4%. Besides, the chromatographic logD in “CHI Log D procedure” was found to be 2.23.

Take `CCNC(=O)[C@H](CCC(N)=O)NC(=O)[C@H](Cc1csc2ccccc12)NC(=O)[C@H](Cc1ccccc1Cl)NC(=O)[C@]12CCN(C1)C(=O)OCCCC=CCCCC1(CCCC=CC[C@]3(CCCN3C(C)=O)C(=O)N[C@@H](CC(=O)O)C(=O)N[C@@H](CC(C)(C)C)C(=O)N1)C(=O)N[C@@H](CC(=O)O)C(=O)N[C@@H](CC(=O)O)C(=O)N[C@@H](C)C(=O)N[C@@H](C)C(=O)N[C@@H](Cc1ccccc1)C(=O)N[C@@H](CC(N)=O)C(=O)N2` (stereo partly drawn) [I-1079, Ac-PL3-Asp-Npg-B5-Asp-Asp-Ala-Ala-Phe-Asn-PyrS2-2C1F-BztA-Gln-NHEt]: the concentration in solution in the data set “Solubility in PBS” (Solubility) was 45 µM (≈ 88.9 µg/mL). The results for the IC50 in data set [1], in data set [2] (setting [4]) and in data set [3] were 19.7 µM, 14.5 µM and 0.005 µM, respectively. The “DLD1 TCF c2 BrightGlo % Inhibition” value is 55.6% and 58.1% and 54.7% in data set [2] (setting [5]); 1.4% and 6.9% and 6.8% in data set [2] (0.625 µM); 1.4% and −0.6% and 2.6% in data set [2] (1.25 µM); −25.7% and −0.8% and 5.1% in data set [2] (2.5 µM); 34.2% and 39.4% and 42.0% in data set [2] (10 µM); 7.4% and 16.0% and 26.5% in data set [2] (setting [6]). Also, the chromatographic logD in the data set “CHI Log D procedure” was determined as 2.5.

In “Solubility in PBS”, `CC(=O)N1CCC[C@]12CC=CCCCC1(CCCC=CCCCOC(=O)N3CC[C@@](C(=O)N[C@@H](Cc4ccccc4Cl)C(=O)N[C@@H](Cc4csc5ccccc45)C(=O)N[C@H](CO)CC(C)C)(C3)NC(=O)[C@H](CC(N)=O)NC(=O)[C@H](Cc3ccccc3)NC(=O)[C@H](C)NC(=O)[C@H](C)NC(=O)[C@H](CC(=O)O)NC(=O)[C@H](CC(=O)O)NC1=O)NC(=O)[C@H](CC(C)(C)C)NC(=O)[C@H](CC(=O)O)NC2=O` (stereo partly drawn) [I-1080, Ac-PL3-Asp-Npg-B5-Asp-Asp-Ala-Ala-Phe-Asn-PyrS2-2C1F-BztA-Leuo1] gave a Solubility of 47 µM (≈ 90.2 µg/mL). For the same compound, the IC50 in data set [1] is over 20 µM; in data set [2] (setting [4]) it was 17.2 µM; in data set [2] (setting [7]) it was 10.4 µM; in data set [3] it was 0.006 µM. The “DLD1 TCF c2 BrightGlo % Inhibition” value was 51.4% and 56.9% and 51.8% in data set [2] (setting [5]); 20.2% and 13.7% and 15.3% in data set [2] (0.625 µM); 16.0% and 13.8% and 12.3% in data set [2] (1.25 µM); 14.6% and 19.8% and 7.9% in data set [2] (2.5 µM); 42.4% and 42.2% and 38.1% in data set [2] (10 µM); 24.9% and 31.0% and 24.4% in data set [2] (setting [6]). In the data set “CHI Log D procedure”, this compound registered a chromatographic logD of 2.59.

In turn, `CC(=O)N1CCC[C@]12CC=CCCCC1(CCCC=CCCCOC(=O)N3CC[C@@](C(=O)N[C@@H](Cc4ccccc4Cl)C(=O)N[C@@H](Cc4csc5ccccc45)C(=O)N[C@@H](C)CO)(C3)NC(=O)[C@H](CC(N)=O)NC(=O)[C@H](Cc3ccccc3)NC(=O)[C@H](C)NC(=O)[C@H](C)NC(=O)[C@H](CC(=O)O)NC(=O)[C@H](CC(=O)O)NC1=O)NC(=O)[C@H](CC(C)(C)C)NC(=O)[C@H](CC(=O)O)NC2=O` (stereo partly drawn) [I-1081, Ac-PL3-Asp-Npg-B5-Asp-Asp-Ala-Ala-Phe-Asn-PyrS2-2C1F-BztA-Alao1] showed a Solubility in the data set “Solubility in PBS” of 43 µM (≈ 80.7 µg/mL). In addition, the IC50 in data set [1] was determined as 16.7 µM; in data set [2] (setting [4]), 10 µM; in data set [2] (setting [7]), 10.6 µM; in data set [3] it was 0.005 µM. Moreover, the “DLD1 TCF c2 BrightGlo % Inhibition” value in data set [2] (setting [5]) is 67.2% and 69.3% and 72.3%; in data set [2] (0.625 µM) it was 9.2% and 7.1% and 11.5%; in data set [2] (1.25 µM) it was 0.8% and 2.4% and 5.4%; in data set [2] (2.5 µM), 4.5% and 7.9% and 15.2%; in data set [2] (10 µM), 45.6% and 49.8% and 55.3%; in data set [2] (setting [6]) it was 17.5% and 23.8% and 31.0%. For the same compound, the chromatographic logD in the data set “CHI Log D procedure” came out at 2.4.
